Test results as given in patent US12637468B2, “Substituted [1,2,4]triazolo[4,3-b]pyridazines as GABAA receptor modulators” (SHANGHAI SIMR BIOTECHNOLOGY CO., LTD., priority 2019, dated 2026).
Values after ≈ are worked out from the molar mass of the structure shown.

Tests used:
[1] = Thermodynamic solubility in simulated intestinal fluid (TS in FaSSIF); assay type: physicochemical; settings: thermodynamic from solid, 37° C.
How it was run: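 About 0.3 mg solid shaken in 1.5 mL FaSSIF-V2 at 1000 rpm, 37° C, 4 hours, in duplicate, then filtered. Filtrate quantified by HPLC-UV against 1 μM-200 μM standards diluted from 10 mM DMSO stock.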

[2] = target: T1, α5-GABAA receptor (Homo sapiens, UniProt P18507+P31644); test: Cell-level screening: whole cell patch clamp, inverse agonist efficacy on α5-GABAA receptor expressed in HEK293; assay type: cell-based; settings: drug 100 nM, GABA 0.05 μM, HEK293 expressing α5, β3 and γ2 subunits, clamped at −60 mV; read-out: Compound inverse agonist efficacy %
T1 construct: expressed in transfected cells; host or cells: HEK293, monoclonal stably transfected line
T1 sequence (P31644 32-462): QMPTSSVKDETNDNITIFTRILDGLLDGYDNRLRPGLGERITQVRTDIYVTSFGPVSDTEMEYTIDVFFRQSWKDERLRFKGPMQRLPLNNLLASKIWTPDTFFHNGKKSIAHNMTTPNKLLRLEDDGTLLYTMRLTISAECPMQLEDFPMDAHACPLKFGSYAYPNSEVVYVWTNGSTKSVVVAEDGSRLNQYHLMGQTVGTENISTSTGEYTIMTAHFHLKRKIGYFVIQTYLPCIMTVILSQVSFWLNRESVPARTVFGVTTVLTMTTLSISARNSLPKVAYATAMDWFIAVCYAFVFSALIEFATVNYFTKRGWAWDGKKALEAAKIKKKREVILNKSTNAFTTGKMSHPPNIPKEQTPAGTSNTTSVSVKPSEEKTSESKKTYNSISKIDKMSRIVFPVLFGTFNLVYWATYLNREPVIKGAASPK
T1 sequence (P28472 26-473 partner): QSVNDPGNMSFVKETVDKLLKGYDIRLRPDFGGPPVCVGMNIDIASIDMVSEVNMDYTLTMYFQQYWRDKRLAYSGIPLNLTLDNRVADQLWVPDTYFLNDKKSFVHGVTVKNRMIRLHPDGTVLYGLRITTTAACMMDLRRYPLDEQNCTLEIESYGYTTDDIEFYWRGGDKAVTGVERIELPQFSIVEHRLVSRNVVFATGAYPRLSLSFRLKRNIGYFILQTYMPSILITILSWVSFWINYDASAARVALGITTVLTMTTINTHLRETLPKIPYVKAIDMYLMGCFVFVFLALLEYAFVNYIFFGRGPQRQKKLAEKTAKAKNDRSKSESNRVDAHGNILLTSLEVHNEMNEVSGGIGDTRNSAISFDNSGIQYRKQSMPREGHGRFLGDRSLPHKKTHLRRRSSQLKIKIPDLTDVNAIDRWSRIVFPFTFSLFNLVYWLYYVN
T1 sequence (P18507 40-467 isoform P18507-1 limits assumed): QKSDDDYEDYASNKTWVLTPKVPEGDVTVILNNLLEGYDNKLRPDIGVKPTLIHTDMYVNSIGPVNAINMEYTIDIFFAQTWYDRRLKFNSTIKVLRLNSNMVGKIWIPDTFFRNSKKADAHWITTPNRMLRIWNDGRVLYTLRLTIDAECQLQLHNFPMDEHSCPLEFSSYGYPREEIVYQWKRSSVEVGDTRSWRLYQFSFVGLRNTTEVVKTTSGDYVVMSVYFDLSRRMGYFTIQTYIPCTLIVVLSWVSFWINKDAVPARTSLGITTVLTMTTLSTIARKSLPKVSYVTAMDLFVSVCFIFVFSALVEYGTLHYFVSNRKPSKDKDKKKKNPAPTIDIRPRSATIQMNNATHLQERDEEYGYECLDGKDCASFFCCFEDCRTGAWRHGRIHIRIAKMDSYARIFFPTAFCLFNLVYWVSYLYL
How it was run: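 Whole-cell patch clamp at −60 mV on HEK293 stably expressing α5β3γ2, pH 7.4 extracellular/CsCl internal solutions. Current evoked by 0.05 μM GABA, then compound in GABA solution; screening at 100 nM, dose-response 0.3–300 nM. Inverse agonist efficacy as % change of GABA current.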

[3] = Pharmacokinetic experiment on rats: brain entry ratio (brain tissue/plasma concentration ratio); assay type: in vivo; settings: rat, male SD rats, po 10 mg/kg, Table 7
Protocol: The drug concentration ratio of plasma and brain tissue in the pharmacokinetic experiment on rats was used to evaluate the entry of compounds into brain. All rats fasted overnight before administration; the test compounds were dissolved and administered orally (po) to male SD rats, with 3 rats in each group. After administration of the test compounds, blood was collected by jugular vein puncture at 0.5 hours with about 0.25 mL per sample. The whole brain was taken at the same time. The plasma and brain tissue drug concentration were determined by LC-MS/MS method, and the pharmacokinetic parameters were calculated by Phoenix WinNonlin7.0. The dosage was 10 mg/kg, and the vehicle was 5% CMC-Na aqueous solution.

Compound	solubility thermodynamic at 4 h [1] [µg/mL]	inhibition at 0.1 µM [2] [%]	Kp at 0.5 h [3]
COc1cc2nnc(-c3cc(C)on3)n2nc1OCc1ccc(OC2CCOC2)nn1 (stereo not drawn) [Embodiment 154]	177 (≈ 416 µM)	45.2	0.0257
COc1cc2nnc(-c3cc(C)on3)n2nc1OCc1ccc2c(n1)CCN(C(CO)CO)C2 [Embodiment 185]	239 (≈ 511 µM)	45.6	0
COc1cc2nnc(-c3cc(C)on3)n2nc1OCc1ccc2c(n1)CCN(C1CCOCC1)C2 [Embodiment 186]	95.4 (≈ 200 µM)	56	0.0442
COc1cc2nnc(-c3cc(C)on3)n2nc1OCc1ccc(C2(F)CN(C3COC3)C2)cn1 [Embodiment 128]	118 (≈ 253 µM)	41.2	0.032
COc1cc2nnc(-c3cc(C)on3)n2nc1OCc1ccc2c(n1)CN(C1CCOCC1)C2 [Embodiment 253]	38.9 (≈ 83.9 µM)	56.1	0.0133
COc1cc2nnc(-c3cc(C)on3)n2nc1OCc1ccc2c(n1)CCN(C1COC1)C2 [Embodiment 84, 3-(7-Methoxy-6-((6-(oxetan-3-yl)-5,6,7,8-tetrahydro-1,6-naphthyridin-2-yl)methoxy)-[1,2,4]triazolo[4,3-b]pyridazin-3-yl)-5-methylisoxazole]	197 (≈ 438 µM)	39.6	0.0045
COc1cc2nnc(-c3cc(C)on3)n2nc1OCc1ccc(OC2CCOCC2)nn1 [Embodiment 152]	44 (≈ 100 µM)	39.3	0.0243
COCCCOc1ccc(COc2nn3c(-c4noc(C)n4)nnc3cc2OC)nn1 [Embodiment 129]	85.4 (≈ 199 µM)	45.8	0.047

Other lines, results leading:

solubility thermodynamic at 4 h [1] [µg/mL]	inhibition at 0.1 µM [2] [%]	Kp at 0.5 h [3]	Compound
246 (≈ 625 µM)	49.3	0.0441	COc1cc2nnc(-c3cc(C)on3)n2nc1OCc1ccc2c(n1)CN(C)C2 [Embodiment 160, 3-(7-Methoxy-6-((6-methyl-6,7-dihydro-5H-pyrrolo[3,4-b]pyridin-2-yl)methoxy)-[1,2,4]triazolo[4,3-b]pyridazin-3-yl)-5-methylisoxazole]
175 (≈ 456 µM)	55.8	0.02	COCc1ccc(COc2nn3c(-c4cc(C)on4)nnc3cc2OC)nn1 [Embodiment 151]
300 (≈ 702 µM)	49.9	0.01	COCCOCc1ccc(COc2nn3c(-c4cc(C)on4)nnc3cc2OC)nn1 [Embodiment 166]
30.2 (≈ 71.4 µM)	59.5	0.0179	COCc1cn2nc(COc3nn4c(-c5cc(C)on5)nnc4cc3OC)ccc2n1 [Embodiment 213]
189 (≈ 460 µM)	49.4	0.02	COc1cc2nnc(-c3cc(C)on3)n2nc1OCc1ccc(OC2COC2)nn1 [Embodiment 153]
176 (≈ 361 µM)	50.4	0.0293	COc1cc2nnc(-c3cc(C)on3)n2nc1OCc1ccc2c(n1)CCN(Cc1cc(C)on1)C2 [Embodiment 187]
